“Also recorded” adds a separate entry of the source.
What was measured:
lipoprotein lipase (LPL) = test: LPL enzyme activity in peritoneal macrophages from treated mice; type: in vivo, mouse; details: ATM^+/+ mice treated systemically, vs saline
ATM [1] = biological target: T1, ATM (Homo sapiens, UniProt Q13315); test: Activated ATM (Ser1981P-ATM Western blot) in monocytes of treated subjects; type: in vivo; parameters: lysates were immunoprecipitated using a total ATM antibody (D1611); endogenous in cells; host or cells: adherent peripheral blood monocytes from human subjects with metabolic syndrome
Method: Anticoagulated blood was added to commercially available tubes containing Histopaque, and mononuclear cells were collected after centrifugation. These cells were subjected to a brief second spin using a discontinuous sucrose gradient to remove platelets (which can interfere with the adherence of monocytes to culture dishes), then the mononuclear cells were placed in tissue culture dishes. Two hours later, lymphocytes were washed away, and adherent monocytes were collected and frozen in appropriate media so that cells from different limbs of the protocol can subsequently be studied in the same assays. […] For activated ATM determinations, lysates were immunoprecipitated using a total ATM antibody (D1611). The immunoprecipitated samples were blotted for activated ATM using a monoclonal antibody recognizing Ser1981P-ATM. The gels included a positive control of 293 cells treated with camptothecin. Total lysates were used to blot activated p53 using a polyclonal antibody to Ser15P-p53 (cell signaling). To confirm the p53 data, total lysates were tested using an ELISA-based p53 DNA binding assay (TransAM p53 activity assay from Active Motif).
Target sequence in this assay (Q13315 whole entry): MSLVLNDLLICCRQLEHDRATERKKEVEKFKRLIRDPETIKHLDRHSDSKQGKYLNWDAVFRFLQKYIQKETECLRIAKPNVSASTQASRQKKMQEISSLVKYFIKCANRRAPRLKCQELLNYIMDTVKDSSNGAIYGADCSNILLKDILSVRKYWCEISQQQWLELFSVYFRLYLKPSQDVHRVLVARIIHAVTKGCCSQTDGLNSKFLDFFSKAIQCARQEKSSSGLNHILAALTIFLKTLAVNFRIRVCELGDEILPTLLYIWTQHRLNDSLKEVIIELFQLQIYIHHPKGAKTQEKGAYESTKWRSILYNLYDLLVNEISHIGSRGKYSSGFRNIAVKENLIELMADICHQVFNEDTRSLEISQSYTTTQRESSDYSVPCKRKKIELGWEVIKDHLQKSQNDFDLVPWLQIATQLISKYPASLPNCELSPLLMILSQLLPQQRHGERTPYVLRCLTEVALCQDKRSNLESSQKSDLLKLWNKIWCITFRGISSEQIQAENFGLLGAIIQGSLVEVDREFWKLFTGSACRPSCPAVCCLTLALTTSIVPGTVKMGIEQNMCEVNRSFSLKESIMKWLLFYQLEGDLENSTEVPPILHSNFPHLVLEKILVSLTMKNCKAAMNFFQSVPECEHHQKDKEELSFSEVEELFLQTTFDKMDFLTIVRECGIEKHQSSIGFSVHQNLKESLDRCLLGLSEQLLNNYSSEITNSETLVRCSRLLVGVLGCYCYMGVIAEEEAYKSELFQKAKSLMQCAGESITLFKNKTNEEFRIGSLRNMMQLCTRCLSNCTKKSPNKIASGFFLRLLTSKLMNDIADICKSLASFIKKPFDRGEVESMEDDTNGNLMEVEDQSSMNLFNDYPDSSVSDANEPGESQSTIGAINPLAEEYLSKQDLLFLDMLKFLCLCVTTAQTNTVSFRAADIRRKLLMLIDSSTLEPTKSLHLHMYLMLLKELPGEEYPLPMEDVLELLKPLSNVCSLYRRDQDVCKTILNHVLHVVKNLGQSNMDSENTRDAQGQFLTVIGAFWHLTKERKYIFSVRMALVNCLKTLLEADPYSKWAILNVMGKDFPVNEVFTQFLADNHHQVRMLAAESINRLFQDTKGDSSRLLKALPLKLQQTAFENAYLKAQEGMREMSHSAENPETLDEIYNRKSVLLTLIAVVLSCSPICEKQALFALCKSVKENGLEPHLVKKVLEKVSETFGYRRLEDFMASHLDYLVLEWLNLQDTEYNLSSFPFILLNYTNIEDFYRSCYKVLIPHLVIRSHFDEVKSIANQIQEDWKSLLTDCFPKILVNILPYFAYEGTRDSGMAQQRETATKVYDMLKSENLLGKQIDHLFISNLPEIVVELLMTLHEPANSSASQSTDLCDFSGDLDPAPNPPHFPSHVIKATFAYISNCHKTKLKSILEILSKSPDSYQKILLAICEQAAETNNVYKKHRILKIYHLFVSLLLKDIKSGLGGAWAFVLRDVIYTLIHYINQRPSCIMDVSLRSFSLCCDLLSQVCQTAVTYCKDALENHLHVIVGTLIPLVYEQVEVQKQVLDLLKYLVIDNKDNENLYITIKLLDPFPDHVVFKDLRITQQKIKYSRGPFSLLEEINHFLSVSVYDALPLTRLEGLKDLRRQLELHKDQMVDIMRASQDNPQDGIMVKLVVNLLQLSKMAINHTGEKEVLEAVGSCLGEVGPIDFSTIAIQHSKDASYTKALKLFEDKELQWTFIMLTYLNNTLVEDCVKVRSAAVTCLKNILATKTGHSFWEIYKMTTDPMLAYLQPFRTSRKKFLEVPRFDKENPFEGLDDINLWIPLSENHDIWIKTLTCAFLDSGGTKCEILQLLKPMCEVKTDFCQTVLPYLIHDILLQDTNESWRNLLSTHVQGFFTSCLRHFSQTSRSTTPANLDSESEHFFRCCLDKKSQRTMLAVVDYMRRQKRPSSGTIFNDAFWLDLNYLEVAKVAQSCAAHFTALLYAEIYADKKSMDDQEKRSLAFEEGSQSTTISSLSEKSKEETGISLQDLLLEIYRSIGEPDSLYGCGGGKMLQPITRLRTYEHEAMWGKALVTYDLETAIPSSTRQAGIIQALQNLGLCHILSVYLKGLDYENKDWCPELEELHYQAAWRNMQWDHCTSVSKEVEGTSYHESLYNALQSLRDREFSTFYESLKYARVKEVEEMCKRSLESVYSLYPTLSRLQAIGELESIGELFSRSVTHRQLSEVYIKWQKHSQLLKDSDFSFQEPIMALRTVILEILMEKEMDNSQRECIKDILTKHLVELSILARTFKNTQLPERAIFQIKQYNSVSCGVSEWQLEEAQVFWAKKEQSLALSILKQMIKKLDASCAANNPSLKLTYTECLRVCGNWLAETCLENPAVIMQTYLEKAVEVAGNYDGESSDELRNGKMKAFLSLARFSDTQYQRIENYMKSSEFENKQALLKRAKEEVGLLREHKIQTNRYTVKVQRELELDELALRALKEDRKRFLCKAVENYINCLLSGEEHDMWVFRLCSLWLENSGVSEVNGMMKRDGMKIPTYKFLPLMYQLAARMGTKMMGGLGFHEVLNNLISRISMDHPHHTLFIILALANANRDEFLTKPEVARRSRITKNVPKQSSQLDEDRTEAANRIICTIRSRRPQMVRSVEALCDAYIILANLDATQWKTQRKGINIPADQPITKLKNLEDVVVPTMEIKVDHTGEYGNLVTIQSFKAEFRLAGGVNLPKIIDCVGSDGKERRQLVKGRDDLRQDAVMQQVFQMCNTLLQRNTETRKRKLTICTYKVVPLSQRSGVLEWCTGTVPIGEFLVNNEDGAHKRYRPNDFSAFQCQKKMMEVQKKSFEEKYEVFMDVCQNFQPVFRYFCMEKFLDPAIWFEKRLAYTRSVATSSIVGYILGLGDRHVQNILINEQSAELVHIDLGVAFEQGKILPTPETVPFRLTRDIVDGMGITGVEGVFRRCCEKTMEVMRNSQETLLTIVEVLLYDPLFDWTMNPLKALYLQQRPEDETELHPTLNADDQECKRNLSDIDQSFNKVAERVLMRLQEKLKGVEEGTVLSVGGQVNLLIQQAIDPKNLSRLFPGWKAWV

[2] = tested on: ApoE-null model mice lacking a single allele of ATM; test: ApoE-null mice lacking a single allele of ATM on high fat diet, chloroquine treatment; type: in vivo, mouse; details: 7 mg/kg per week
p53 = details: low dose chloroquine, 3.5 mg/kg per injection i.p.
Excerpt: (§1) However, low level activation of ATM as detected with an antibody that recognizes serine phosphorylation at residue 1981, may also be used in the assay.

[3] = tested on: patients with type 2 diabetes; details: cited from earlier work
retina = details: several groups; cited from earlier work
ATM [4] = biological target: T1, ATM; test: ATM activation in cultured cells; type: cell-based; parameters: endogenous in cells; details: low concentrations
Excerpt: as §1
Target sequence in this assay (Q13315 whole entry, species assumed): as the sequence (Q13315 whole entry) above

[5] = tested on: subjects with the metabolic syndrome; test: Fasting lipids and lipoproteins in subjects with the metabolic syndrome; type: in vivo, human; details: for Total Cholesterol / HDL cholesterol / LDL cholesterol / Triglycerides: 3 weeks; for Total Cholesterol: average of two subjects, placebo 206; for HDL cholesterol: placebo 47; for LDL cholesterol: placebo 132; for Triglycerides: placebo 139
ob/ob mice = test: Blood glucose and fasting insulin in ob/ob mice; type: in vivo, mouse
Method: (§2) Two month old male db/db (Lepr^db; LEPR-deficient mice having excess adiposity) mice and ob/ob (Lep^ob, genetically obese) mice were purchased from Harlan (Indianapolis, Ind.) and the Jackson Laboratory, respectively.
(§3) Blood glucose in male db/db mice were treated with either CHQ or saline. Baseline represents the average fed blood glucose levels of the 12 db/db mice.

[6] = tested on: ATM^+/+ apoE^−/− and ATM^−/− apoE^−/− mice; test: Tail-cuff systolic and diastolic blood pressure in Western diet-fed mice; type: in vivo, mouse; details: 7 mg/kg/week, 8 weeks Western diet, vs saline
Method: Systolic blood pressure (SBP) and diastolic blood pressure (DBP) were measured after 8 weeks of Western diet feeding in ATM^+/+, ATM^+/−, and ATM^−/− mice. […] A plethysmography device (such as those supplied by Kent Scientific, Litchfield, Conn.) was used for tail cuff blood pressure determinations in acclimated, warmed mice performed by a technician blinded to treatment status, according to the manufacturer's instructions. Results were reported as the mean of 5-8 measurements on each day of 3 consecutive days.
Systolic and diastolic blood pressures were measured over several days in conscious mice using a tail-cuff system (Kent Scientific, Litchfield, Conn.) as described (Bernal-Mizrachi et al., 2003; Nat. Med. 9:1069-1075). Animals were habituated to the blood pressure apparatus for several days before data were collected. Five to eight measurements were recorded for each mouse at each of three daily sessions. Results are presented as the mean of those measurements on consecutive days.

db/db mice = test: Fed blood glucose in db/db mice; type: in vivo, mouse; details: male db/db mice, vs baseline and saline
Method: as §2, §3

[7] = tested on: ATM^+/+apoE^−/− and ATM^−/−apoE^−/− mice; test: Intraperitoneal glucose tolerance test in Western diet-fed mice; type: in vivo, mouse
Method: For glucose tolerance and insulin tolerance tests, mice were fasted and injected with 10% D-glucose (1 g/kg) or human regular insulin (0.75 units/kg body weight, Eli Lilly and Co., Indianapolis, Ind.) in procedures separated by at least one week. Tail vein blood (5-10 µl) was assayed for glucose at 0, 30, 60, and 120 minutes. Blood glucose was assayed using a glucose meter (Hemocue, Mission Viejo, Calif. or Becton Dickinson, San Jose, Calif.). The area under the glucose and insulin curves (AUC) during the OGTT and ITT were calculated using the formula: 0.25 (fasting value)+0.5 (½ h value)+0.75 (1 h value)+0.5 (2 h value).
The glucose tolerance and insulin tolerance tests were performed on mice that were fasted for 12 hours and then injected with 10% D-glucose (1 g/kg) or human regular insulin (0.75 units/kg body weight, Eli Lilly and Co., Indianapolis, Ind.) in procedures separated by at least one week. Tail vein blood (5-10 μl) was assayed for glucose at 0, 30, 60, and 120 minutes. Blood glucose was assayed using a glucose meter (Hemocue, Mission Viejo, Calif.). The area under the glucose and insulin curves (AUC) during the OGTT and ITT were calculated using the formula: 0.25 (fasting value)+0.5 (½ h value)+0.75 (1 h value)+0.5 (2 h value), as described by Haffner et al., N. Engl.
(§5) The mice were then fed the Western-type diet as described.

[8] = tested on: subjects with the metabolic syndrome; test: Hyperinsulinemic-euglycemic clamp in subjects with the metabolic syndrome; type: in vivo, human
Method: (§4) Glucose and insulin tolerance tests are generally performed using D-glucose (1 g/kg) and insulin (0.75 U/kg), which are administered in separate procedures followed by serial measurements of blood glucose. If necessary, an oral glucose tolerance test (OGTT) will be performed the day after completing the clamp. After an overnight fast, an intravenous catheter will be placed, baseline labs will be obtained, 75 g of glucose will be consumed, and blood glucose, insulin, C peptide, and glucagon will be determined every half hour for 2 hours.
Two subjects with the metabolic syndrome have completed the protocol. The mean glucose infusion rate to maintain euglycemia (90 mg/dl) at steady state during the first stage of the clamp (using an insulin infusion rate of 15 mU/m^2/min) for these two subjects was determined.
Clamps are performed with infusion of stable isotope-labeled glucose to allow the determination of both glucose disposal rates and hepatic glucose output during hyperinsulinemic-euglycemic clamps in subjects with the metabolic syndrome. The results are presented as the mean for two subjects.

[9] = Body weight, metabolic rate (indirect calorimetry) and fasting serum lipids in mice; type: in vivo, mouse; details: ATM^+/+ apoE^−/− mice, 7 mg/kg/week, 4 and 8 weeks Western diet
Method: as §5
All of these experiments were performed using ATM^+/+ apoE^−/− littermate mice beginning at the age of 8 weeks.
Serum is generally obtained after a four hour fast and assayed for routine chemistries (glucose, triglycerides, cholesterol, and non-esterified fatty acids) using an automated plate reader connected to a computer, as described by Li et al., Nat.

[10] = tested on: subjects with the metabolic syndrome; test: Ambulatory blood pressure, glucose tolerance test and body weight in subjects with the metabolic syndrome; type: in vivo, human; details: two subjects
Method: as §4

ATM^+/+ apoE^−/− mice = test: Atherosclerosis by the en face technique in Western diet-fed mice; type: in vivo, mouse; details: 7 mg/kg/week i.p., 8 weeks Western diet, vs saline
Method: Atherosclerosis was measured using the en face or aortic origin technique. For the former, pinned aortas were imaged with a digital camera and analyzed by using an image-processing program. The percentage of involvement of the intimal surface area is reported for the arch (encompassing the surface from the aortic valve to the left subclavian artery), the thoracic aorta (extending to the final intercostal artery), and the abdominal aorta (to the ileal bifurcation). For the aortic origin technique, mean lesion size for each animal was quantified by the degree of lipid staining of cross-sections of aortic tissue as described. Anesthetized mice were exsanguinated, the heart and aortic arch were perfused, then tissues were removed en bloc and frozen immediately in tissue freeze medium. For each sample, 64 sections were made on a cryostat beginning just caudal to the aortic sinus and extending into the proximal aorta at 10 μm intervals. Slides were fixed with 60% isopropanol and stained with Oil Red O. For each heart, lesions in eight sections at 80 μm intervals were quantified using image analysis software calibrated using a hemocytometer grid.
as §5
The quantification of aortic lesions involved cleaning the aortas and pinning them on a wax matrix with the intimal surface facing upward (en face). Images were captured with a digital camera, edited for artifacts, and data were reported as the percent involvement of the arch (encompassing the surface from the aortic valve to the left subclavian artery), thoracic aorta (extending to the last intercostal artery), and abdominal aorta (to the ileal bifurcation). At the time of isolation, hearts were embedded in optical coherence tomography (OCT) media and frozen to permit quantification of lesion formation by staining of serial cryostat-cut sections of the aortic sinus, if necessary.

JNK = test: Phospho-JNK ELISA in cultured aortic smooth muscle cells after antisense transfection; type: cell-based, mouse; details: aortic smooth muscle cells from ATM^+/+apoE^−/− mice, 1.4 μmol/L, 72 hours
Method: When cultured aortic smooth muscle cells were treated with a morpholino antisense oligonucleotide to ATM, JNK activity was increased, providing direct evidence that interfering with ATM expression induces JNK activity, a mediator of insulin resistance. Analysis of phospho-JNK in vascular smooth muscle cells cultured from ATM^+/+apoE^−/− mice. Primary aortic smooth muscle cells were transfected with an anti-ATM oligonucleotide, or a control oligonucleotide or the vehicle ethoxylated polyethylenimine solution only. Cells were assayed by ELISA for phospho-JNK and total JNK as measured in U/ml/well of a 96-well plate. […] Increased expression of phospho-JNK was detected in tissues involved in systemic insulin action in all three ATM genotypes in apoE^−/− mice, as determined by analysis of Western blots for fat, skeletal muscle and liver. Comparisons were made between ATM-deficient and ATM wild-type animals.
Most of the mass of the aorta is composed of smooth muscle cells. Smooth muscle cells were cultured from the aortas of apoE^−/− mice by the explant technique as described by Weng et al., Proc. Natl. Acad. Sci. USA, 2003, 100:6730-6735. […] Successful transfection was confirmed by fluorescence microscopy and phospho-JNK and total JNK were assayed 72 hours later using a cell-based ELISA kit. […]

[11] = 1000 mg/day for three days (Powrie et al.)
[12] = 80 mg/day for three weeks, two subjects
[13] = 80 mg/day, first stage of clamp, mean of two subjects

Compound: CCN(CC)CCCC(C)Nc1ccnc2cc(Cl)ccc12 (stereo not shown) [chloroquine, N4-(7-Chloro-4-quinolinyl)-N1,N1-diethyl-1,4-pentanediamine]
- LPL enzyme activity in peritoneal macrophages (lipoprotein lipase (LPL)): decreased
- ATM activation (ATM [1]; 80 mg/day dose): greater activation
- ATM activation (ATM [1]; 250 mg/day dose): blunted effect
- activation of ATM in monocytes (ATM [1]; three weeks of 80 mg/day or 250 mg/day, none with placebo): activation; also recorded: activated
- atherosclerosis [2]: significantly reduced
- central adiposity [2]: significantly reduced
- glucose intolerance [2]: significantly reduced
- hypertension [2]: significantly reduced
- p53 activation in fat and muscle as well as liver, aorta and cultured macrophages (p53): p53 activation
- endogenous glucose production [3, 11]: without affecting
- insulin resistance in peripheral tissues [3, 11]: modestly decreased
- increase in the glucose infusion rate required to maintain euglycemia ([3]; 1000 mg/day for three days, patients with type 2 diabetes): 13%
- cumulative doses with no effects (retinopathy) (retina): 300 grams
- ATM activation in cultured cells (ATM [4]): activates
- decrease in LDL cholesterol [5, 12]: 25%
- decrease in total cholesterol [5, 12]: 17%
- decrease in triglycerides [5, 12]: 10%
- Total Cholesterol ([5]; chloroquine 80 mg/day): 172 mg/dL
- HDL cholesterol ([5]; chloroquine 80 mg/day): 47 mg/dL
- LDL cholesterol ([5]; chloroquine 80 mg/day): 100 mg/dL
- Triglycerides ([5]; chloroquine 80 mg/day): 125 mg/dL
- Total Cholesterol ([5]; chloroquine 250 mg/day): 169 mg/dL
- HDL cholesterol ([5]; chloroquine 250 mg/day): 51 mg/dL
- LDL cholesterol ([5]; chloroquine 250 mg/day): 99 mg/dL
- Triglycerides ([5]; chloroquine 250 mg/day): 129 mg/dL
- fasting insulin levels (ob/ob mice; 7 mg/kg/week, saline 16,810±1,120, P<0.05): 13,360±1996 pg/ml
- fasting glucose levels (ob/ob mice; 3 weeks after initiation, vs baseline and saline): lowered
- fed glucose levels (ob/ob mice; vs baseline and saline): lowered
- lowering of systolic pressure [6]: 9 mm Hg
- fed glucose levels (db/db mice): lowered
- glucose tolerance ([7]; ATM^+/+ apoE^−/− mice, 7 mg/kg/week, 8 weeks Western diet, vs saline): improved
- glucose tolerance ([7]; ATM^−/−apoE^−/− mice, Western diet): not
- increase in glucose infusion rate compared to placebo ([8]; 80 mg dose, second stage of clamp (insulin 40 mU/m^2/min)): 23%
- increase in glucose infusion rate to maintain the blood glucose ([8]; 80 mg per day oral, 3 weeks, first stage of clamp (insulin 15 mU/m^2/min), mean of two subjects): 63%
- decrease of hepatic glucose production [8, 13]: 58%
- increase of glucose disposal in peripheral tissues [8, 13]: 62%
- glucose infusion rate effect ([8]; 250 mg dose, clamp first and second stage): blunted effect
- serum lipids (fasting cholesterol, triglycerides, NEFA) [9]: no effect
- ambulatory blood pressures (systolic, diastolic, mean arterial) [10]: did not appear to be affected
- decrease of atherosclerosis (lesion area) at the abdominal aorta (ATM^+/+ apoE^−/− mice): 25%
- decrease of atherosclerosis (lesion area) at the arch (ATM^+/+ apoE^−/− mice): 37%
- decrease of atherosclerosis (lesion area) at the thoracic aorta (ATM^+/+ apoE^−/− mice): 25%

Compound: anti-ATM: lissamine-tagged Morpholino antisense oligonucleotide against mouse ATM, 5′-GTGCTAGACTCATGGTTTAAGATTT-3′ (SEQ ID NO:6) (all phosphorodiamidate morpholino (PMO); lissamine tag, position not given here)
- JNK activity (phospho-JNK normalized to total JNK) (JNK): increased

Reference: patent US8440695B2 (St Jude Children's Research Hospital, priority 2005, dated 2013)
